Source: article PMC5303003 (Bioorganic & medicinal chemistry, 2017)
Read-outs that look alike come from different tables or passages of the source.

Columns and labels:
σ1 receptor [1] = conditions: cited from earlier work; for Ki: read-out: Ki-σ1
[2] = molecular target: vesicular acetylcholine transporter (VAChT); conditions: cited from earlier work
σ1 receptor [3] = test: MicroPET blocking study with σ1 ligand pretreatment in nonhuman primate; format: in vivo, cynomolgus macaque; conditions: 1.0 mg/kg i.v. 5 min prior to tracer injection, NHP, versus baseline
σ2 receptor = conditions: read-out: Ki-σ2; cited from earlier work
σ1 receptor [4] = molecular target: T1, σ1 receptor (Cavia porcellus, UniProt Q60492); test: σ1 receptor competitive binding assay; conditions: Ki σ1, (+)-isomer, guinea pig brain membranes, mean ± SEM
σ1 receptor [5] = molecular target: T1, σ1 receptor; conditions: read-out: Ki-σ1 of racemic compounds, previously reported; cited from earlier work
[6] = molecular target: emopamil binding protein (EBP); conditions: read-out: Ki for emopamil binding protein (EBP); cited from earlier work

T1 sequence (Q60492 whole entry): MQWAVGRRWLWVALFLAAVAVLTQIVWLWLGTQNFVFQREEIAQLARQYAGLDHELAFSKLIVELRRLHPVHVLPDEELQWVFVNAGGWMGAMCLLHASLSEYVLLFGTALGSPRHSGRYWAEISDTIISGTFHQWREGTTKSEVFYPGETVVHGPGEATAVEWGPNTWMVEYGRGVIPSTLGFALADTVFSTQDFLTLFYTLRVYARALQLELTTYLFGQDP

O=c1sc2cc(CCCF)ccc2n1CCN1CCCCCC1 [[^18F]FTC-146, ^18F-6-(3-fluoropropyl)-3-(2-(azepan-1 yl)ethyl)benzo-[d]thiazol-2(3H)-one]
Ki (σ1 receptor [1]): 0.0025 nM
Ki ([2]; read-out: Ki-VAChT): 450 nM

O=C(Cc1ccccc1F)NC1CCC(Cc2ccccc2)CC1 (centres unmarked) [Yun122, N-(4-benzylcyclohexyl)-2-(2-fluorophenyl)acetamide]
effect of pretreatment on brain uptake of (−)-[18F]TZ3108 (σ1 receptor [3]): significantly reduced
Ki (σ1 receptor [1]): 3.6 nM
Ki (σ2 receptor): 667 nM

O=C(c1ccc(F)cc1)C1CCN(C2CCN(Cc3ccc(F)cc3)CC2O)CC1 (single isomer, unassigned; (+)) [(+)-14a]
Ki (σ1 receptor [4]): 0.14 ± 0.02 nM

COc1ccc(CCN2CCN(CCCc3ccccc3)CC2)cc1O[11CH3] [[^11C]SA4503, 1-(4-methoxy-3-(methoxy-^11C)phenethyl-^11C)-4-(3-phenyl-propyl)piperazine]
selectivity for σ1 over VAChT (σ1 receptor [1]): 11 fold
selectivity for σ1 over σ2 receptor (σ1 receptor [1]): 55 fold

O=C(c1ccc(F)cc1)C1CCN(C2CCN(Cc3ccc(F)cc3)CC2O)CC1 (racemic) [14a]
Ki (σ1 receptor [5]): 0.48 nM

COc1ccc(CCN2CCN(CCCc3ccccc3)CC2)cc1OC [SA4503]
Ki [6]: 1.7 nM
Ki ([2]; read-out: Ki for VAChT): 50 nM
